# What was measured:
# Format in all cases: cell-based
# [1] = system: human hepatoma cell line Hep G2; assay: Cell viability assay (alamarBlue); settings: 40 μg/mL, 24 hours
# Procedure: (§1) Cell viability was measured using alamarBlue. For cell viability assays, human embryonic kidney cell line HEK 293 and human hepatoma cell line Hep G2 were plated 180 μL in each well on a 96-well plate (for HEK 293, at a density of about 10,000 cells/well; for Hep G2, at a density of about 7500 cells/well). The cells were grown overnight (16˜18 hours) and left to attach. After overnight incubation, 20 μL of Tellimagrandin II was added to give final concentrations of 0, 20, 30, 40 and 50 μg/mL. The cultures with 0 μg/mL Tellimagrandin II and without adding additional drug (medium only) were as controls. The cells are then incubated in a 5% CO2, 37° C. incubator for 24 hours. After 24 hours, 100 μL of alamarBlue was added to each well, and cultured in a 5% CO2, 37° C. incubator for 4 hours. Absorbance was monitored at 570 nm and 600 nm and cell viability was determined.
# [2] = system: human embryonic kidney cell line HEK 293; assay: Cell viability assay (alamarBlue); settings: 40 μg/mL, 24 hours
# Procedure: as §1
# [3] = system: Staphylococcus aureus biofilm formation; assay: Biofilm formation; settings: 40 μg/mL Tellimagrandin II
# Procedure: Bacteria was grown overnight (16˜18 hours) on agar plate. Then, collected and re-suspended in 0.45% sterile PBS and diluted in sterile PBS to final optical density at 600 nm (OD600) of 0.1. Polystyrene 96-well microtitre plates were filled with 150 μL of culture medium and 20 μL of bacterial solution per well. The cultures were allowed to stand at 37° C. for 18 hours. After the incubation period, cultures were removed, and microtitre plate wells were gently washed three times with 300 μL of sterile PBS to remove loosely associated bacteria, then dried at 60° C. oven for 1 hour. Samples were stained by the addition of the 2% dye solution (150 μL) to each well above the initial inoculation level and incubated for 15 minutes. The plate was then washed in fresh water. The intensity of staining was measured after the addition of 95% alcohol (150 μL) to each dry well. The samples were incubated at room temperature for 30 min, after which the OD517 values were measured on a plate reader.
# Optical density cut-off value (ODc)=average OD of negative control+3× standard deviation (SD) of negative control (The interpretation of biofilm production was done according to the criteria of Srdjan et al. (APMIS 115: 891-9, 2007). MRSA 17199 were used as control strain.
structure (smiles),measurement,setting,value
O=C(OC1O[C@@H]2COC(=O)c3cc(O)c(O)c(O)c3-c3c(cc(O)c(O)c3O)C(=O)O[C@H]2[C@H](OC(=O)c2cc(O)c(O)c(O)c2)[C@H]1OC(=O)c1cc(O)c(O)c(O)c1)c1cc(O)c(O)c(O)c1 (some centres unmarked) [Tellimagrandin II],Cell viability,[1],at least 80%
same,Cell viability,[2],at least 80%
same,OD (average OD value of the strain − ODc),[3]; ODc 0.167,0.039
same,Average OD value,[3]; biofilm staining of strain,0.206
same,Absorbance 1,"[3]; biofilm staining of strain, replicate 1",0.153
same,Absorbance 2,"[3]; biofilm staining of strain, replicate 2",0.259
same,Absorbance 3,"[3]; biofilm staining of strain, replicate 3",0.167
same,Absorbance 4,"[3]; biofilm staining of strain, replicate 4",0.246

# From US8975234B2, “Anti-bacterial infection, inflammation, and leukemia composition and use thereof” (priority 2011, dated 2015)
